From US20220364056A1, “SHORT-CHAIN FATTY ACID PENTANOATE AS ENHANCER FOR CELLULAR THERAPY AND ANTI-TUMOR THERAPY” (PHILIPPS-UNIVERSITÄT MARBURG, priority 2019, published 2022)

Columns and labels:
[1] = test system: human CD8+ T lymphocytes; assay: human CD8+ T lymphocytes differentiated into CTLs, flow cytometry; assay type: cell-based
Experimental: (A and B) CD8^+ T cells isolated from spleens and LNs were polarized under Tc17-inducing conditions and treated with pentanoate for 3 days. Representative contour plots (A) and bar graphs (B) indicate the frequency of IL-17^+ and IFN-γ+ cells. Three similar experiments were performed. (C and D) CD8^+ T cells isolated from spleens and LNs were polarized under Tc9-inducing conditions and treated with pentanoate for 3 days. Representative contour plots (C) and bar graphs (D) are showing the frequency of IL-9^+ and IFN-γ+ cells. Three similar experiments were performed. (E and F) The expression of granzyme B, IFN-γ and Eomes in pentanoate-treated human CTLs was analysed by flow cytometry. Five independent experiments were performed (E). For Eomes, mean fluorescence intensity (MFI) values are shown (F, n=3).
(A) CD8^+ T cells isolated from peripheral blood of healthy donors were differentiated into CTLs in presence or absence of indicated HDACi. Representative contour plots and dot plots indicate the frequency of TNF-α+ and IFN-γ^+ cells. Data points in the graphs represent individual donors (n=4, performed in 4 independent experiments) (B-G) Phenotyping of pentanoate-treated ROR1-specific CD8^+ CAR T cells (CARROR1 T cells). (B) Experimental setup for the functional analysis is shown. (C) The cytokine secretion (IFN-γ and TNF-α) was analysed in supernatants of pentanoate-treated CARROR1 T cells by ELISA. (D) The surface expression of CD25 was measured by flow cytometry. (E) The secretion of IL-2 was detected in supernatants of CARROR1 T cells by ELISA. (F) Proliferation of CARROR1 T cells was determined by CFSE labelling. CARROR1 T cells pre-treated with pentanoate were stained with CFSE and subsequently co-cultured with […] cells in the absence of pentanoate. CD8^+ T cells without the CAR construct were used as mock control cells. […] The percentage of lysed target cells was determined in 1 hour intervals (effector-to-target cell (E:T) ratio=2.5:1). […]

[2] = test system: CTLs; assay: co-transfer of pentanoate-treated and control CTLs into Rag1-deficient mice; assay type: in vivo
Text: To investigate the capacity of SCFAs on survival and persistence of CD8^+ T cells, we mixed pentanoate-treated CTLs (CD45.2^+) with control CTLs (CD45.1^+) at 1:1 ratio and co-transferred them into Rag1-deficient mice. To better mimic the in vivo tumor microenvironment, we also adoptively co-transferred Tregs (CD45.2^+ from FIR×tiger reporter mice) that are frequently found in solid tumors. In addition, Foxp3^−CD4^+ T cells were co-transferred as the cellular source of IL-2 (FIG. 9, A and B). […] The capacity of CFSE to label proliferative cells was used for in vivo monitoring of CD8^+ T cell proliferation in Rag1-deficient mice after pretreatment with pentanoate. […] Given the importance of CD25 in supporting an effective IL-2R signalling, as well as the proliferation and survival of lymphocytes, we next asked whether pentanoate is capable of modulating CD25 expression in CTLs.
(A) experimental setup for investigating CTL persistence in vivo is shown. (B-D) The frequency (B, C) and total cell numbers (D) of transferred T cells (WT CD45.1^+ CTLs, WT CD45.2^+ pentanoate-treated CTLs and Foxp3^+CD45.2^+ Tregs from FIR×tiger mice) in Rag1-deficient mice on days 15 after the adoptive transfer are shown. The co-transferred Foxp3^−CD4^+ cells were excluded from the gate (B, C). In D, n=_3 mice/group/experiment, data from 2 pooled independent experiments are shown. […] (G and H) Frequencies and cell numbers of CD25^+ CD8^+ T cells were analysed by flow cytometry on day 15 after transfer of control CTLs (CD45.1^+) and pentanoate-treated CTLs (CD45.2^+) into Rag1-deficient mice (n=3 mice/group/experiment, data pooled from 2 independent experiments). […] The phosphorylated (p)-STAT5 levels were analysed by flow cytometry (n=5, performed in 3 independent experiments). (J) The secretion of IL-2 in pentanoate-treated CTLs cultured for indicated time points was measured by ELISA (n=4, pooled from 2 independent experiments).

[3] = test system: ROR1-expressing Panc02 pancreatic tumor cells (PancROR1); assay: transfer of pretreated ROR1-specific CAR T cells into mice bearing s.c. PancROR1 tumors; assay type: in vivo

## CCCCC(=O)O [pentanoate]
[1]
  expression of granzyme B, IFN-γ and Eomes: enhancing the expression
[1]; healthy donors
  expression of TNF-α and IFN-γ: enhancing the expression
[2]; day 15 after transfer, vs control CTLs
  frequencies and numbers of CD25+CD8+ T cells in iLN, mLN and spleen: increased frequencies and numbers
[2]; days 4 after transfer, vs control CTLs
  in vivo proliferation of CFSE labelled CD8+ T cells: stronger proliferative ability
[2]; days 15 after transfer, without cognate antigen
  cell number and frequency of transferred CD8+ T lymphocytes: high cell number and frequency
[3]; day 10 following administration of pentanoate-treated CAR T cells
  tumor volume and weight: significantly diminished
[3]; vs control CAR T lymphocytes
  frequency and number of IFN-γ+TNF-α+ CAR T cells in tumors: elevated frequency and number
